Assay results reported in patent US12234229B2, “Sphingosine kinase inhibitor amidoxime prodrugs” (University of Virginia Patent Foundation, priority 2016, dated 2025).

Assays:
[1] = test system: sphingosine kinase type 2 (SphK2); assay: Blood sphingosine 1-phosphate (S1P) in mice after oral dosing, LC-MS-MS; format: in vivo; details: C57Bl/6 mice, oral gavage 20 mg/kg, blood drawn immediately, at 2 h, 6 and 24 h, FIG. 1A
Protocol: FIGS. 1A-1B. Four C57Bl/6 mice were dosed by oral gavage with 20 mg/kg of Compound 6. At the indicated times, blood was drawn, whole prepared for analysis, and the amount sphingosine 1-phosphate (S1P) was quantified by LC-MS-MS (FIG. 1A). The rise in S1P is indicative of inhibition of sphingosine kinase type 2 (SphK2).
Four C57Bl/6 mice were dosed by oral gavage with 20 mg/kg of Compound 6 (Example 113). Blood was drawn immediately, at 2h, 6, and 24 h after administration, whole prepared for analysis, and the amount of sphingosine 1-phosphate (S1P) was quantified by LC-MS-MS, as shown in FIG. 1A.

[2] = biological target: T1, human sphingosine kinase type 2 (hSPHK2) (Homo sapiens, UniProt Q9NRA0); assay: Sphingosine kinase assay, recombinant human SPHK2 ([32P]S1P product, scintillation counting); format: biochemical; details: read-out: activity hSPHK2 (range estimates of KI values)
T1 construct: purchased; host or cells: Sf9 insect cells (baculovirus)
T1 sequence (Q9NRA0 1-654): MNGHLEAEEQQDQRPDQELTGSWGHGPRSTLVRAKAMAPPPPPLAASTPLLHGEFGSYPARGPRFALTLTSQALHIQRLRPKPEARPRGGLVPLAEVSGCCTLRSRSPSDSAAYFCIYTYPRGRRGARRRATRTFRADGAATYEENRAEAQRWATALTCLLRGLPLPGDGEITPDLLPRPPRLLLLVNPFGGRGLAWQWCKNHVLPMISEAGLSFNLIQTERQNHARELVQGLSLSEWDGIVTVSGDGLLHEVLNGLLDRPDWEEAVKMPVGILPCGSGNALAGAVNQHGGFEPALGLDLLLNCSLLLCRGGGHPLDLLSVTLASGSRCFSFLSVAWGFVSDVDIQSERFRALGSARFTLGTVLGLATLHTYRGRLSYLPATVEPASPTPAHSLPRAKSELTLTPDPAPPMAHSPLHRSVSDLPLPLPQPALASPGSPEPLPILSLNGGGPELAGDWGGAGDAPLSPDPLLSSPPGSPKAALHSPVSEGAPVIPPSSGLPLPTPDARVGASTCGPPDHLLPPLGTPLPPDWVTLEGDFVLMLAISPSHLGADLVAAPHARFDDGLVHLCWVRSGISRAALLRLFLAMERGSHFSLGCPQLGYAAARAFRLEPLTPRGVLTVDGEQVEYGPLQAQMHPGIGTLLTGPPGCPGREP
Protocol: (§1) Recombinant baculovirus encoding human sphingosine kinase type 1 (SPHK1) was used to infect Sf9 insect cells and after 2-5 days, cleared lysates were prepared and used without further purification. Human SPHK2, which was partially purified from baculovirus-infected Sf9 cell lysates, was purchased from a commercial source. Sphingosine kinase assays were performed using standard protocols. Product [^32P]S1P was recovered by binding to cation exchange paper and quantified by scintillation counting.

[3] = biological target: T2, human sphingosine kinase type 1 (hSPHK1) (Homo sapiens, UniProt Q9NYA1); assay: Sphingosine kinase assay, recombinant human SPHK1 ([32P]S1P product, scintillation counting); format: biochemical; details: read-out: activity hSPHK1 (range estimates of KI values)
T2 construct: made in house; host or cells: Sf9 insect cells (baculovirus)
T2 sequence (Q9NYA1 whole entry): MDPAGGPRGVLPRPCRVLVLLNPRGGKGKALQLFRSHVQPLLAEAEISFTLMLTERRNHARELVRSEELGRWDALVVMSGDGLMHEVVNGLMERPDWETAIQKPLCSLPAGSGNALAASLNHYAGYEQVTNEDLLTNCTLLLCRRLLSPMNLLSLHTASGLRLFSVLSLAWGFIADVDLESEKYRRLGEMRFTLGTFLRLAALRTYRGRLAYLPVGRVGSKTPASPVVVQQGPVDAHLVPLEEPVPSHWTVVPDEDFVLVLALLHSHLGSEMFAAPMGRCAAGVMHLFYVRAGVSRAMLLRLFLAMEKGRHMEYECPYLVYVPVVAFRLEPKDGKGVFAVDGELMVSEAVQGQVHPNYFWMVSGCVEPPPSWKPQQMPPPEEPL
Protocol: as §1

[4] = patients, 1-yr trial; cited from earlier work

SMILES | Ki [2] [µM] | other results
CCCCCCCCOc1ccc(-c2noc([C@@H]3[C@@H](O)CCN3/C(N)=N/O)n2)cc1C(F)(F)F [Compound 6, (2S,3S)—N,3-dihydroxy-2-(3-(4-(octyloxy)-3-(trifluoromethyl)phenyl)-1,2,4-oxadiazol-5-yl)pyrrolidine-1-carboximidamide] |  | amount of sphingosine 1-phosphate (S1P) in blood [1]: rise in S1P
CCCCCCCCc1ccc(CCC(N)(CO)CO)cc1 [fingolimod, 2-amino-2-[2-(4-octylphenyl)ethyl] propane 1,3-diol] |  | hypertension (blood pressure rise) [4]: 2-3 mmHg

Continued, in another order:

Ki [2] [µM] | SMILES | other results
< 1 | CCCCCCCCOc1ccc(-c2noc([C@@H]3[C@@H](O)CCN3C(=N)N)n2)cc1C(F)(F)F [Compound 6A, amino((2S,3S)-3-hydroxy-2-(3-(4-(octyloxy)-3-(trifluoromethyl)phenyl)-1,2,4-oxadiazol-5-yl)pyrrolidin-1-yl)methaniminium chloride] | 
< 1 | CCCCCCCCCn1ccc2cc(-c3noc([C@@H]4CCCN4C(=N)N)n3)ccc21 [Compound 17A, (S)-amino(2-(3-(1-nonyl-1H-indol-5-yl)-1,2,4-oxadiazol-5-yl)pyrrolidin-1-yl)methaniminium chloride] | 
> 10 | C=COCc1ccc(-c2noc([C@@H]3CCCN3C(=N)N)n2)cc1C(F)(F)F [Compound 77A] | Ki [3]: > 10 µM
